From article PMC4468608, “A distinct p53 target gene set predicts for response to the selective p53–HDM2 inhibitor NVP-CGM097” (eLife, 2015)
Read-outs that look alike come from different tables or passages of the source.

Test system: cell lines from the Cancer Cell Line Encyclopedia (CCLE)
Assay: High-throughput cell viability assay, CCLE cell line panel (n = 356)
Assay type: cell-based, human
Conditions: for IC50: Homo sapiens
Experimental: Cell lines were partitioned into sensitive and insensitive groups based on compound potency (IC50). […] All other cell lines were obtained from ATCC (American Type Culture Collection), DSMZ (Deutsche Sammlung von Mikroorganismen und Zellkulturen), and HSRRB (Health Science Research Resources Bank) and cultured in RPMI or Dulbecco's modified Eagle's medium plus 10% FBS (Invitrogen, Carlsbad, CA) at 37°C, 5% CO2.

How did the IC50 (read-out: NVP- CFC218 IC50 (µM), cell line MEL-HO, skin, TP53 WT) turn out when `COc1cc2c(cc1OC(C)C)[C@H](c1ccc(Cl)cc1)N(c1ccc(N(C)C[C@H]3CC[C@H](N4CCNC(=O)C4)CC3)cc1)C(=O)C2` [NVP-CFC218] was run?
The IC50 was over 8 µM.

What about the IC50 (read-out: NVP- CFC218 IC50 (µM), cell line NCI-H1341, lung, TP53 WT) of the same molecule?
Its IC50 is over 8 µM.

And the IC50 (read-out: NVP- CFC218 IC50 (µM), cell line PE/CA-PJ41 (clone D2), upper_aerodigestive_tract, TP53 MUT)?
Its IC50 is over 8 µM.

And the IC50 (read-out: NVP- CFC218 IC50 (µM), cell line PEER, haem._and_lymphoid_tissue, TP53 MUT)?
The IC50 was over 8 µM.

And the IC50 (read-out: NVP- CFC218 IC50 (µM), cell line SNG-M, endometrium, TP53 WT)?
The IC50 was over 8 µM.

And the IC50 (read-out: NVP- CFC218 IC50 (µM), cell line Sq-1, lung, TP53 WT)?
The IC50 was over 8 µM.

And the IC50 (read-out: NVP- CFC218 IC50 (µM), cell line TE-9, oesophagus, TP53 MUT)?
The IC50 was over 8 µM.

What about the IC50 (read-out: NVP- CFC218 IC50 (µM), cell line WM-88, skin, TP53 WT) of the same molecule?
Its IC50 is over 8 µM.

What about the Amax (Hs 729, TP53 MUT) of the same molecule?
The Amax was 7.88%.

And the sensitivity call (Hs 729, TP53 MUT)?
The sensitivity call was “insensitive (Sensitivity call for each compound was applied according to a cut-off of 4 µM for IC50 and -50% for Amax)”.

What about the Amax (IGROV1, TP53 MUT) of the same molecule?
The Amax was -1.82%.

What about the sensitivity call (IGROV1, TP53 MUT) of the same molecule?
Its sensitivity call is “insensitive (Sensitivity call for each compound was applied according to a cut-off of 4 µM for IC50 and -50% for Amax)”.

What about the Amax (J82, TP53 MUT) of the same molecule?
The Amax was -2.55%.

And the sensitivity call (J82, TP53 MUT)?
Its sensitivity call is “insensitive (Sensitivity call for each compound was applied according to a cut-off of 4 µM for IC50 and -50% for Amax)”.

What about the Amax (JHH-7, TP53 MUT) of the same molecule?
Its Amax is -2.28%.

What about the sensitivity call (JHH-7, TP53 MUT) of the same molecule?
Its sensitivity call is “insensitive (Sensitivity call for each compound was applied according to a cut-off of 4 µM for IC50 and -50% for Amax)”.

What about the Amax (JHUEM-2, TP53 WT) of the same molecule?
Its Amax is -91.79%.

And the sensitivity call (JHUEM-2, TP53 WT)?
The sensitivity call was “sensitive (Sensitivity call for each compound was applied according to a cut-off of 4 µM for IC50 and -50% for Amax)”.

And the Amax (JMSU-1, TP53 MUT)?
The Amax was 2.12%.

And the sensitivity call (JMSU-1, TP53 MUT)?
Its sensitivity call is “insensitive (Sensitivity call for each compound was applied according to a cut-off of 4 µM for IC50 and -50% for Amax)”.

And the Amax (KE-39, TP53 MUT)?
Its Amax is -5.22%.

What about the sensitivity call (KE-39, TP53 MUT) of the same molecule?
Its sensitivity call is “insensitive (Sensitivity call for each compound was applied according to a cut-off of 4 µM for IC50 and -50% for Amax)”.

And the Amax (KE-97, TP53 WT)?
Its Amax is -79.42%.

And the sensitivity call (KE-97, TP53 WT)?
The sensitivity call was “sensitive (Sensitivity call for each compound was applied according to a cut-off of 4 µM for IC50 and -50% for Amax)”.

And the Amax (KMM-1, TP53 MUT)?
Its Amax is -27.14%.

What about the sensitivity call (KMM-1, TP53 MUT) of the same molecule?
Its sensitivity call is “insensitive (Sensitivity call for each compound was applied according to a cut-off of 4 µM for IC50 and -50% for Amax)”.

What about the Amax (KNS-60, TP53 MUT) of the same molecule?
Its Amax is -1.47%.

And the sensitivity call (KNS-60, TP53 MUT)?
Its sensitivity call is “insensitive (Sensitivity call for each compound was applied according to a cut-off of 4 µM for IC50 and -50% for Amax)”.

And the Amax (KP-N-SI9s, TP53 WT)?
The Amax was -92.10%.

And the sensitivity call (KP-N-SI9s, TP53 WT)?
Its sensitivity call is “sensitive (Sensitivity call for each compound was applied according to a cut-off of 4 µM for IC50 and -50% for Amax)”.

And the Amax (KU812, TP53 MUT)?
The Amax was 19.95%.

And the sensitivity call (KU812, TP53 MUT)?
The sensitivity call was “insensitive (Sensitivity call for each compound was applied according to a cut-off of 4 µM for IC50 and -50% for Amax)”.

What about the Amax (KYSE-30, TP53 MUT) of the same molecule?
The Amax was -3.88%.

And the sensitivity call (KYSE-30, TP53 MUT)?
The sensitivity call was “insensitive (Sensitivity call for each compound was applied according to a cut-off of 4 µM for IC50 and -50% for Amax)”.

And the Amax (KYSE-70, TP53 MUT)?
Its Amax is -0.20%.

What about the sensitivity call (KYSE-70, TP53 MUT) of the same molecule?
The sensitivity call was “insensitive (Sensitivity call for each compound was applied according to a cut-off of 4 µM for IC50 and -50% for Amax)”.

What about the Amax (KYSE-140, TP53 MUT) of the same molecule?
The Amax was -19.56%.

And the sensitivity call (KYSE-140, TP53 MUT)?
Its sensitivity call is “insensitive (Sensitivity call for each compound was applied according to a cut-off of 4 µM for IC50 and -50% for Amax)”.

What about the Amax (KYSE-180, TP53 MUT) of the same molecule?
The Amax was -30.58%.

And the sensitivity call (KYSE-180, TP53 MUT)?
Its sensitivity call is “insensitive (Sensitivity call for each compound was applied according to a cut-off of 4 µM for IC50 and -50% for Amax)”.

And the Amax (LCLC-103H, TP53 MUT)?
Its Amax is -1.79%.

And the sensitivity call (LCLC-103H, TP53 MUT)?
Its sensitivity call is “insensitive (Sensitivity call for each compound was applied according to a cut-off of 4 µM for IC50 and -50% for Amax)”.

And the Amax (LK-2, TP53 MUT)?
The Amax was -3.65%.

What about the sensitivity call (LK-2, TP53 MUT) of the same molecule?
The sensitivity call was “insensitive (Sensitivity call for each compound was applied according to a cut-off of 4 µM for IC50 and -50% for Amax)”.

What about the Amax (LN-18, TP53 MUT) of the same molecule?
Its Amax is -16.71%.

What about the sensitivity call (LN-18, TP53 MUT) of the same molecule?
Its sensitivity call is “insensitive (Sensitivity call for each compound was applied according to a cut-off of 4 µM for IC50 and -50% for Amax)”.

What about the Amax (LOU-NH91, TP53 MUT) of the same molecule?
Its Amax is 2.89%.

What about the sensitivity call (LOU-NH91, TP53 MUT) of the same molecule?
The sensitivity call was “insensitive (Sensitivity call for each compound was applied according to a cut-off of 4 µM for IC50 and -50% for Amax)”.

What about the Amax (LOX IMVI, TP53 WT) of the same molecule?
Its Amax is -48.25%.

And the sensitivity call (LOX IMVI, TP53 WT)?
Its sensitivity call is “insensitive (Sensitivity call for each compound was applied according to a cut-off of 4 µM for IC50 and -50% for Amax)”.

What about the Amax (LU65, TP53 MUT) of the same molecule?
The Amax was -1.36%.

And the sensitivity call (LU65, TP53 MUT)?
The sensitivity call was “insensitive (Sensitivity call for each compound was applied according to a cut-off of 4 µM for IC50 and -50% for Amax)”.

And the Amax (MEG-01, TP53 MUT)?
The Amax was 0.30%.

What about the sensitivity call (MEG-01, TP53 MUT) of the same molecule?
Its sensitivity call is “insensitive (Sensitivity call for each compound was applied according to a cut-off of 4 µM for IC50 and -50% for Amax)”.

What about the Amax (MKN74, TP53 MUT) of the same molecule?
Its Amax is 2.29%.

What about the sensitivity call (MKN74, TP53 MUT) of the same molecule?
Its sensitivity call is “insensitive (Sensitivity call for each compound was applied according to a cut-off of 4 µM for IC50 and -50% for Amax)”.

And the Amax (MOG-G-UVW, TP53 WT)?
Its Amax is 3.49%.

What about the sensitivity call (MOG-G-UVW, TP53 WT) of the same molecule?
The sensitivity call was “insensitive (Sensitivity call for each compound was applied according to a cut-off of 4 µM for IC50 and -50% for Amax)”.

What about the Amax (MOLM-16, TP53 MUT) of the same molecule?
The Amax was 12.84%.

And the sensitivity call (MOLM-16, TP53 MUT)?
Its sensitivity call is “insensitive (Sensitivity call for each compound was applied according to a cut-off of 4 µM for IC50 and -50% for Amax)”.

What about the Amax (MeWo, TP53 MUT) of the same molecule?
Its Amax is 0.14%.

What about the sensitivity call (MeWo, TP53 MUT) of the same molecule?
Its sensitivity call is “insensitive (Sensitivity call for each compound was applied according to a cut-off of 4 µM for IC50 and -50% for Amax)”.

What about the Amax (NCI-H23, TP53 MUT) of the same molecule?
The Amax was -1.09%.

What about the sensitivity call (NCI-H23, TP53 MUT) of the same molecule?
Its sensitivity call is “insensitive (Sensitivity call for each compound was applied according to a cut-off of 4 µM for IC50 and -50% for Amax)”.

What about the Amax (NCI-H1355, TP53 MUT) of the same molecule?
Its Amax is -28.98%.

And the sensitivity call (NCI-H1355, TP53 MUT)?
Its sensitivity call is “insensitive (Sensitivity call for each compound was applied according to a cut-off of 4 µM for IC50 and -50% for Amax)”.

And the Amax (NCI-H1648, TP53 MUT)?
Its Amax is -2.43%.

What about the sensitivity call (NCI-H1648, TP53 MUT) of the same molecule?
Its sensitivity call is “insensitive (Sensitivity call for each compound was applied according to a cut-off of 4 µM for IC50 and -50% for Amax)”.

What about the Amax (NCI-H1651, TP53 MUT) of the same molecule?
The Amax was -2.57%.

And the sensitivity call (NCI-H1651, TP53 MUT)?
Its sensitivity call is “insensitive (Sensitivity call for each compound was applied according to a cut-off of 4 µM for IC50 and -50% for Amax)”.

And the Amax (NCI-H2009, TP53 MUT)?
Its Amax is -6.28%.

And the sensitivity call (NCI-H2009, TP53 MUT)?
Its sensitivity call is “insensitive (Sensitivity call for each compound was applied according to a cut-off of 4 µM for IC50 and -50% for Amax)”.

And the Amax (NCI-H2110, TP53 MUT)?
The Amax was -4.78%.

And the sensitivity call (NCI-H2110, TP53 MUT)?
The sensitivity call was “insensitive (Sensitivity call for each compound was applied according to a cut-off of 4 µM for IC50 and -50% for Amax)”.

And the Amax (NCI-H2122, TP53 MUT)?
The Amax was -89.07%.

What about the sensitivity call (NCI-H2122, TP53 MUT) of the same molecule?
The sensitivity call was “sensitive (Sensitivity call for each compound was applied according to a cut-off of 4 µM for IC50 and -50% for Amax)”.

What about the Amax (NCI-H2444, TP53 MUT) of the same molecule?
Its Amax is -4.64%.

What about the sensitivity call (NCI-H2444, TP53 MUT) of the same molecule?
The sensitivity call was “insensitive (Sensitivity call for each compound was applied according to a cut-off of 4 µM for IC50 and -50% for Amax)”.

What about the Amax (NCI-H2452, TP53 WT) of the same molecule?
Its Amax is -0.68%.

What about the sensitivity call (NCI-H2452, TP53 WT) of the same molecule?
The sensitivity call was “insensitive (Sensitivity call for each compound was applied according to a cut-off of 4 µM for IC50 and -50% for Amax)”.

And the Amax (NCO2, TP53 MUT)?
Its Amax is -1.52%.

What about the sensitivity call (NCO2, TP53 MUT) of the same molecule?
The sensitivity call was “insensitive (Sensitivity call for each compound was applied according to a cut-off of 4 µM for IC50 and -50% for Amax)”.

And the Amax (OCI-M1, TP53 MUT)?
Its Amax is -1.98%.

What about the sensitivity call (OCI-M1, TP53 MUT) of the same molecule?
The sensitivity call was “insensitive (Sensitivity call for each compound was applied according to a cut-off of 4 µM for IC50 and -50% for Amax)”.

And the Amax (OE33, TP53 MUT)?
The Amax was -2.82%.

And the sensitivity call (OE33, TP53 MUT)?
Its sensitivity call is “insensitive (Sensitivity call for each compound was applied according to a cut-off of 4 µM for IC50 and -50% for Amax)”.
